In patent US20090123555A1, “Stimulateable Polymer Particles Exhibiting Reactive Functions, Method for the Production and the Use Thereof” (CENTRE NATIONAL DE LA RECHER CHE SCIENTIFIQUE, priority 2004, published 2009):

Test: Release of the active ingredient from the particle by lowering of the pH, followed by UV-visible spectrometry
Assay type: physicochemical
Text: Once the particle was synthesised we verified by UV-visible spectrometry the possibility of releasing the medicament by simple lowering of the pH.

With `COc1ccc2c(c1)c(CC(=O)O)c(C)n2C(=O)c1ccc(Cl)cc1` [indomethacin] the “release of the medicament by simple lowering of the pH” value (lowering of the pH, release from the particle) was “progressive and controlled release” and the “indomethacin salted out (released) from the particle” value (pH equal to 3, in 48 hours, indomethacin covalently bonded inside the particle (NB-PCL-POE-OMe stabilised latex)) was “more than 85%”.
